Data taken from patent US20170281758A1, “CAL[…] DRUG […] AN A[…] TO A SUGAR MOIETY ON CALICHEAMICIN” (Sorrento Therapeutics, Inc., priority 2016, published 2017).

Key:
[1] = system: Seven breast cancer cell lines with various level of Her2 expression; test: Overall assessment of anti-HER2 ADCs over the cell panel (efficacy, toxicity, therapeutic window); format: cell-based
Description: (§1) The antibody used was an anti-HER2 IgG class of antibody. Seven breast cancer cell lines with various level of Her2 expression as indicated with plus or minus signs in the table below were plated in 96 well plate. The ADCs as listed under Drug-Linker ID were serial diluted and added onto cells for treatment for 5 days. At the end of the study, cell proliferation was measured by Promega's CellTitreGlo.

MDA-453 (Her2++) = conditions: anti-HER2 IgG ADC, treatment 5 days, 50% cell growth inhibition
Description: as §1

MDA468 (Her2−) = conditions: anti-HER2 IgG ADC; MDA468 (Her2−) control cell line; treatment 5 days; 50% cell growth inhibition
Description: as §1

MCF-7 (Her2+/−) = conditions: anti-HER2 IgG ADC, treatment 5 days, 50% cell growth inhibition
Description: as §1

JIMT-1 (Her2+++) = conditions: anti-HER2 IgG ADC, treatment 5 days, 50% cell growth inhibition
Description: as §1

BT474 (Her2+++) = conditions: anti-HER2 IgG ADC, treatment 5 days, 50% cell growth inhibition
Description: as §1

SKBR-3 (Her2+++) = conditions: anti-HER2 IgG ADC, treatment 5 days, 50% cell growth inhibition
Description: as §1

HCC1954 (Her2+++) = conditions: anti-HER2 IgG ADC, treatment 5 days, 50% cell growth inhibition
Description: as §1

Structure (SMILES) | Assessment of efficacy and toxicity / therapeutic window [1] | EC50 (MDA-453 (Her2++)) [nM] | EC50 (MDA468 (Her2−)) [nM] | EC50 (MCF-7 (Her2+/−)) [nM] | EC50 (JIMT-1 (Her2+++)) [nM] | EC50 (BT474 (Her2+++)) [nM] | EC50 (SKBR-3 (Her2+++)) [nM] | EC50 (HCC1954 (Her2+++)) [nM]
CCN(C(=O)CNC(=O)OCc1ccc(NC(=O)[C@H](C)NC(=O)[C@@H](NC(=O)CCCn2nnc(CBr)c2CBr)C(C)C)cc1)C1COC(OC2C(O[C@H]3C#C/C=C\C#C[C@]4(O)CC(=O)C(NC(=O)OC)=C3/C4=C\CSSC(C)(C)CCC(=O)NCCOCCOCCOCCO)OC(C)C(NOC3CC(O)C(SC(=O)c4c(C)c(I)c(OC5OC(C)C(O)C(OC)C5O)c(OC)c4OC)C(C)O3)C2O)CC1OC (stereo partly drawn) [Compound 30] | successful candidates with high efficacy and good therapeutic window | 0.05 | 24 | 0.5 | 0.09 | 1.41 | 0.065 | –
CCN(C(=O)CNC(=O)OCc1ccc(NC(=O)[C@H](C)NC(=O)[C@@H](NC(=O)CCCC(=O)O)C(C)C)cc1)C1COC(OC2C(O[C@H]3C#C/C=C\C#C[C@]4(O)CC(=O)C(NC(=O)OC)=C3/C4=C\CSSC(C)CCC(=O)NC3C(O)OC(CO)C(O)C3O)OC(C)C(NOC3CC(O)C(SC(=O)c4c(C)c(I)c(OC5OC(C)C(O)C(OC)C5O)c(OC)c4OC)C(C)O3)C2O)CC1OC (stereo partly drawn) [Compound 40] | successful candidates with high efficacy and good therapeutic window | 0.1 | 41.7 | 90 | 0.35 | 0.9 | 0.657 | –
CCN(C(=O)CNC(=O)OCc1ccc(NC(=O)[C@H](CC(N)=O)NC(=O)[C@H](C)NC(=O)[C@H](C)NC(=O)CCC(=O)N2CCC(C(=O)O)CC2)cc1)C1COC(OC2C(O[C@H]3C#C/C=C\C#C[C@]4(O)CC(=O)C(NC(=O)OC)=C3/C4=C\CSSC(C)(C)CC(=O)NCC(O)CO)OC(C)C(NOC3CC(O)C(SC(=O)c4c(C)c(I)c(OC5OC(C)C(O)C(OC)C5O)c(OC)c4OC)C(C)O3)C2O)CC1OC (stereo partly drawn) [Compound 15] | successful candidates with high efficacy and good therapeutic window | – | – | > 100 | 0.17 | 1.46 | 0.17 | 0.064
CCN(C(=O)CNC(=O)OCc1ccc(NC(=O)[C@H](C)NC(=O)[C@@H](NC(=O)CCCC(=O)O)C(C)C)cc1)C1COC(OC2C(O[C@H]3C#C/C=C\C#C[C@]4(O)CC(=O)C(NC(=O)OC)=C3/C4=C\CSSC(C)CCC(=O)NCC(O)CO)OC(C)C(NOC3CC(O)C(SC(=O)c4c(C)c(I)c(OC5OC(C)C(O)C(OC)C5O)c(OC)c4OC)C(C)O3)C2O)CC1OC (stereo partly drawn) [Compound 37] | successful candidates with high efficacy and good therapeutic window | 0.33 | 16.9 | 0.33 | 0.141 | 1.53 | 0.234 | –
